Here are results for 8 molecules from PMC7253382, “Trypanocidal and leishmanicidal activity of six limonoids” (Journal of Natural Medicines, 2020).

Data set [1] has as its system intracellular L. major amastigotes in J774 macrophages. The data set can be described thus: Intra-macrophages amastigote assay. Type of data set: cell-based, Leishmania major. As to conditions: for Killing of intracellular amastigotes: 72 h. How it is done: The intra-macrophages amastigote assay was performed as previously described with some modification. In brief, 1 mL of J774 cells (7 × 10^4) suspended in RPMI supplemented with 10% foetal bovine serum were pipetted into wells of a 24 well plate containing sterile glass coverslips. Subsequently, cells were incubated overnight at 37 °C and 5% CO2 in a humidified incubator. The next day, metacyclic L. major promastigotes (MOI 20:1) were added and the plates incubated for 24 h at 34 °C and 5% CO2 in a humidified incubator. After 24 h incubation, cells were washed 4 times with PBS to remove parasites that had not invaded any macrophage. Then, cells were incubated with compound 1 at the following concentrations: 10, 2.5, 1.25, 0.625 and 0.1 µM. Amphotericin B (0.1 µM) was used as a positive control and no drug treatment as a negative control. After 72 h of drug incubation, cells were gently washed 4 times with PBS and fixed with 4% paraformaldehyde for 30 min. Thereafter, cells were washed once with water and stained with Giemsa for 40 min. Cells on coverslips were then destained using the acetone-xylene protocol as follows: first, pure acetone; second, pure acetone; third, acetone/xylene 9:1; forth, acetone/xylene 7:3; fifth, acetone/xylene 3:7; sixth, pure xylene. Finally, coverslips were mounted on slides with Entellan new mounting medium. Infection index (parasites/cell) were determined by counting approximately 300 cells per coverslips using an Olympus BX50 microscope with a 100 × N.A. 1.35 oil immersion objective.
Fig. 2 Effect of compound 1 on intracellular L. major amastigotes. After infection of J774 macrophages with metacyclic promastigotes of L. major, cells were treated with compound 1 or amphotericin B (AM) or with DMSO alone (DMSO) 24 h post infection. After 72 h incubation, coverslips with cells were washed with PBS, fixed with paraformaldehyde and stained with Giemsa. Subsequently, cells were destained and coverslips mounted, and the infection index determined. Mean values ± SD of three independent experiments run in triplicate are shown

Data set [2] deals with human myeloid leukaemia HL-60 cells. The data set can be described thus: In vitro toxicity assay (resazurin), HL-60 cells. The class given is cell-based. As to conditions: 72 h; for GI50: 50% growth inhibition, resazurin. The method, then:
(§1) Bloodstream forms of Trypanosoma brucei (clone 427-221a) and human myeloid leukaemia HL-60 cells were maintained in Baltz medium supplemented with 16.7% heat-inactivated bovine serum in a humidified atmosphere containing 5% CO2 at 37 °C. Promastigotes of Leishmania major (strain MHOM/IL/81/Friedlin [16]) were cultured in Schneider’s insect medium supplemented with 10% heat-inactivated foetal bovine serum in a humidified atmosphere containing 5% CO2 at 27 °C.
(§2) Toxicity assays were carried out as previously described with some modifications. In brief, cells were seeded in 96-well plates in a final volume of 200 μL of appropriate medium containing various concentrations of test compounds (tenfold dilution from 100 µM to 1 nM) and 1% DMSO. Wells just containing medium and 1% DMSO served as controls. The initial cell densities were 1 × 10^4/mL for T. brucei bloodstream forms, 2.5 × 10^5/mL for L. major promastigotes, and 5 × 10^4/mL for HL-60 cells. After 24 h incubation, 20 µL of a 0.5 mM resazurin solution prepared in PBS was added and the cells were incubated for a further 48 h. Thereafter, the absorbance of wells was read on a BioTek ELx808 microplate reader using a test wavelength of 570 nm and a reference wavelength of 630 nm. The 50% growth inhibition (GI50) value, i.e., the concentration of a compound necessary to reduce the growth rate of cells by 50% compared to the control, was determined by linear interpolation. The minimum inhibitory concentration (MIC) values, i.e. the concentration of a compound at which all trypanosomes and human cells were killed, was determined microscopically.

Data set [3] in a line: In vitro toxicity assay (resazurin), HL-60 cells. Type of data set: cell-based, human. As to conditions: human. The method, then:
as §1, §2

For data set [4], the system named is promastigotes of Leishmania major (strain MHOM/IL/81/Friedlin). As to the kind of experiment: In vitro toxicity assay (resazurin), L. major promastigotes. Type of data set: cell-based. As to conditions: 72 h; for GI50: read-out: L. major GI50; for MIC: read-out: L. major MIC. The method, then: as §1, §2
(Alamar Blue is a resazurin reagent that responds to reducing activity.)

Data set [5] concerns bloodstream forms of Trypanosoma brucei (clone 427-221a). As to the kind of experiment: In vitro toxicity assay (resazurin), T. brucei bloodstream forms. Type of data set: cell-based. As to conditions: for GI50: read-out: T. brucei GI50; for MIC: read-out: T. brucei MIC. The method, then:
as §1, §2

In data set [6] the test system is immortalised human embryonic kidney cell line HEK239T. The arrangement: method as in PMID 28917086. As to conditions: cited from earlier work.
Data set [7] concerns bloodstream forms of T. brucei rhodesiense. The arrangement: method as in PMID 17253841. As to conditions: cited from earlier work.
For data set [8], the system named is Axenic grown amastigotes of L. donovani. Also noted: method as in PMID 17253841. As to conditions: cited from earlier work.
Setting [9] is: Leishmania major, promastigotes, 50% growth inhibition, resazurin.
Where [10] appears, read: Leishmania major, promastigotes, determined microscopically.
Where [11] appears, read: Trypanosoma brucei, 72 h, bloodstream forms, 50% growth inhibition, resazurin, 72 h.
[12] abbreviates: Trypanosoma brucei, bloodstream forms, concentration at which all cells were killed, determined microscopically, 72 h.
Where [13] appears, read: cytotoxicity, determined microscopically.
The mark [14] stands for this setting: HL-60 cells (human myeloid leukaemia), cytotoxicity, 50% growth inhibition, resazurin, 72 h, read-out: HL-60 cells GI50.
Setting [15] is: cytotoxicity, 50% growth inhibition, resazurin, 72 h, read-out: HL-60 cells GI50.

Values after ≈ are worked out from the molar mass of the structure shown. Where two headings read alike, the source gives them in different places. Where only a bound is given, the exact number is not on record here.

The GI50 is the concentration that inhibits growth by half. The MIC is the lowest concentration found to suppress growth. Regarding `C[C@@H]1[C@H](O)[C@@H](C)/C=C/C=C/C=C/C=C/C=C/C=C/C=C/[C@H](O[C@@H]2O[C@H](C)[C@@H](O)[C@H](N)[C@@H]2O)C[C@@H]2O[C@](O)(C[C@@H](O)C[C@@H](O)[C@H](O)CC[C@@H](O)C[C@@H](O)CC(=O)O[C@H]1C)C[C@H](O)[C@H]2C(=O)O` [Amphotericin B, reference compound], the “Killing of intracellular amastigotes” value in data set [1] (at 0.1 μM, positive control) was “completely destroy”. Besides, the “HL-60 cells MIC” value in data set [2] (human) was > 100 µM. In addition, in data set [3] (HL-60 cells GI50), the 50% growth inhibitory concentration (GI50) at 72 h came to 50.7 ± 9.3 µM. The GI50 in data set [4] (setting [9]) came to 0.036 ± 0.001 µM. Moreover, in data set [4] (setting [10]), the MIC worked out at 0.1 µM (≈ 0.0924 µg/mL).
In the case of `CC1(C)C(=O)C=C[C@]2(C)C3C(=O)C[C@@]4(C)[C@H](c5ccoc5)OC(=O)[C@H]5O[C@]54[C@]3(C)CC[C@@H]12` (stereo partly shown) [Compound 1, kotschyienone A], the 50% growth inhibitory concentration (GI50) in data set [1] (Leishmania major, J774, same value as 1.51 μM in mass units) is 0.66 µg/mL (≈ 1.51 µM); in data set [5] (setting [11]), 2 to 3 µM; in data set [5] (Trypanosoma brucei, bloodstream forms, same value as 2.48 μM in mass units), 1.09 µg/mL; in data set [5] (bloodstream forms, 50% growth inhibition, resazurin, 72 h), 2.48 ± 0.12 µM; in data set [2] (cytotoxicity) it was 31.5 ± 3.7 µM; in data set [4] (setting [9]) it was 2 to 3 µM. The GI50 in data set [4] (promastigotes, 50% growth inhibition, resazurin) is 2.86 ± 0.89 µM. Also, the “Killing of intracellular amastigotes” value in data set [1] (at 10 μM) is reported as “killed completely”. In data set [1] (intracellular amastigotes in J774 macrophages, 72 h drug incubation, infection index), the “ED50 (50% effective dose), reduction of parasite burden of infected macrophages” value was 1.51 µM. Also, the minimal inhibitory concentration (MIC) in data set [5] (setting [12]) and in data set [4] (setting [10]) was 10 µM (≈ 4.39 µg/mL) throughout. The “HL-60 cells MIC” value in data set [2] (setting [13]) was 100 µM. The GI50 at 72 h in data set [3] (setting [14]) was in the range of 31.5 to 46.2 µM. Also, the “cytotoxicity for HEK239T” value in data set [6] is > 200 µg/mL.
Take `CC1(C)C(=O)C=C[C@]2(C)C3C(=O)C[C@@]4(C)[C@H](c5ccoc5)OC(=O)[C@H]5O[C@]54[C@]3(C)[C@H](O)C[C@@H]12` (stereo partly shown) [Compound 2, kotschyienone B]: the GI50 in data set [5] (setting [11]) came out at 14.2 ± 2.9 µM; in data set [4] (setting [9]), 14.9 ± 5.9 µM. For the same molecule, the MIC in data set [5] (setting [12]) and in data set [4] (setting [10]) was 100 µM (≈ 45.5 µg/mL) in each case. Further, the “HL-60 cells MIC” value in data set [2] (setting [13]) was > 100 µM. Besides, the GI50 at 72 h in data set [3] (setting [14]) is > 100 µM.
With `CC1(C)C(=O)C=C[C@]2(C)C3CC[C@@]4(C)[C@H](c5ccoc5)OC(=O)[C@H]5O[C@]54[C@]3(C)[C@H](O)C[C@@H]12` (stereo partly shown) [Compound 3, 7-deacetylgedunin], the GI50 in data set [5] (Trypanosoma brucei, 72 h) was 14.5 ± 3.2 µM; in data set [7] it was 3.4 µM; in data set [2] (cytotoxicity), 46.2 ± 6.7 µM; in data set [8] it was ~1 µM; in data set [4] (Leishmania major) it was 11.6 ± 1.6 µM. Also, the minimal inhibitory concentration (MIC) in data set [5] (Trypanosoma brucei, 72 h) came to 100 µM (≈ 44.1 µg/mL); in data set [4] (Leishmania major), 100 µM (≈ 44.1 µg/mL). Besides, the “HL-60 cells MIC” value in data set [2] (setting [13]) was determined as 100 µM. Also, the GI50 at 72 h in data set [3] (setting [15]) was 31.5 to 46.2 µM.
In the case of `CC1(C)C(=O)C=C[C@]2(C)C3CC[C@@]4(C)[C@H](c5ccoc5)OC(=O)[C@H]5O[C@]54[C@]3(C)C(=O)C[C@@H]12` (stereo partly shown) [Compound 4, 7-deacetyl-7-oxogedunin], the GI50 in data set [5] (Trypanosoma brucei, 72 h) is 3.18 ± 0.48 µM; in data set [7], 3.4 µM; in data set [8], ~1 µM; in data set [4] (Leishmania major), 7.63 ± 2.78 µM. For the same molecule, the minimal inhibitory concentration (MIC) is > 100 µM in data set [5] (Trypanosoma brucei, 72 h) and > 100 µM in data set [4] (Leishmania major). For the same molecule, the “HL-60 cells MIC” value in data set [2] (setting [13]) is > 100 µM. Further, in data set [3] (setting [15]), the GI50 at 72 h is > 100 µM.
Take `C=C1[C@@H]([C@@]2(C)C=CC(=O)C(C)(C)[C@@H]2CC(=O)OC)CC[C@@]2(C)[C@H](c3ccoc3)OC(=O)[C@H]3O[C@]132` [Compound 5, andirobin]: the values for the concentration for 50% growth inhibition (GI50) in data set [5] (setting [11]) and in data set [4] (setting [9]) were 11.5 ± 6.3 µM and > 100 µM, respectively. The MIC in data set [5] (setting [12]) and in data set [4] (setting [10]) was > 100 µM in each case. In data set [2] (setting [13]), the “HL-60 cells MIC” value is > 100 µM. The GI50 at 72 h in data set [3] (setting [14]) is > 100 µM.
With `C=C1[C@@H]2CC[C@@]3(C)[C@H](c4ccoc4)OC(=O)C[C@]13O[C@H]1CC(=O)C(C)(C)[C@H](CC(=O)OC)[C@]12C` [Compound 6, methyl angolensate], in data set [5] (Trypanosoma brucei, 72 h), the concentration for 50% growth inhibition (GI50) was 6.04 ± 2.25 µM and the minimum inhibitory concentration (MIC) was > 100 µM. In addition, in data set [2] (setting [13]), the “HL-60 cells MIC” value is > 100 µM. In data set [3] (setting [15]), the GI50 at 72 h is > 100 µM. Further, in data set [4] (Leishmania major), the 50% growth inhibitory concentration (GI50) was > 100 µM and the minimal inhibitory concentration (MIC) was > 100 µM.
Regarding `Cc1ccc(C(=O)Nc2ccc(S(=O)(=O)O)c3cc(S(=O)(=O)O)cc(S(=O)(=O)O)c23)cc1NC(=O)c1cccc(NC(=O)Nc2cccc(C(=O)Nc3cc(C(=O)Nc4ccc(S(=O)(=O)O)c5cc(S(=O)(=O)O)cc(S(=O)(=O)O)c45)ccc3C)c2)c1` [Suramin, reference compound], in data set [5] (setting [11]), the 50% growth inhibitory concentration (GI50) worked out at 0.042 ± 0.004 µM. Besides, the MIC in data set [5] (setting [12]) was 1 µM (≈ 1.3 µg/mL). For the same molecule, in data set [2] (human), the “HL-60 cells MIC” value is > 100 µM. In addition, the GI50 at 72 h in data set [3] (HL-60 cells GI50) is > 100 µM.
